Broadly, the inhibition is the change of the read-out against control, counted positive when it falls.

*1 amine or outer side, *2 acyl side, *3 side chain or, on linkers, in order; H or OH if unused. Where a SMILES comes first, the peptide text is derived from it. Bridges are numbered along the chain shown (N, C = ends). [ ]: non-standard residue; d: D form. The star is where a group is joined. Orn(4R-OH,5R-OH) = O=C([C@H](C[C@@H](O)[C@@H](O)N[*:3])N[*:1])[*:2]; Tetradecanoyl(10R,12S-Me2) = CC[C@H](C)C[C@H](C)CCCCCCCCC(=O)*; hTyr(3S-OH,4S-OH) = N[C@H](C(=O)O)[C@H](O)[C@@H](O)c1ccc(O)cc1; Gln(3R-OH) = NC(=O)C[C@@H](O)[C@H](N)C(=O)O; Pro(3S-OH) = O=C(O)[C@H]1NCC[C@@H]1O; Hyp = O=C(O)[C@@H]1C[C@@H](O)CN1

One experiment deals with BTK (Homo sapiens, UniProt Q06187). As to the kind of experiment: biochemical. The settings on record: read-out: BTK inhibition (%).
Sequence of BTK (Q06187 402-655 limits assumed): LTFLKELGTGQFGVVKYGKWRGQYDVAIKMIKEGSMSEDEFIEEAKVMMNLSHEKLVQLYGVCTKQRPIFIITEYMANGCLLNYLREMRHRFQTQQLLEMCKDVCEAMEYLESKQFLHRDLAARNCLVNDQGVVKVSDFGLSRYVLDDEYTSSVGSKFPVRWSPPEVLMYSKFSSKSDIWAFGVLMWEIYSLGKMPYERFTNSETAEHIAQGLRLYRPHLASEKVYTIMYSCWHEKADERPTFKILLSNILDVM
Consider `Cc1cc(N2CCN([C@@H]3CN[C@H](C(=O)N4CCSC4)C3)CC2)n(-c2ccccc2)n1` [PCM-0214840], for which the inhibition at 10 µM was 0.8%.

The same experiment, now with this note: read-out: BTK inhibition (%), 0.75 uM BTK, […] probe 3l, 15 min preincubation.
As for `O=C1C(=Cc2cccnc2)C(=O)c2ccccc21` [PCM-0216080], the inhibition at 10 µM was 20.8%.

For the compound `O=C(/C=C/C=C/c1ccccc1)CCc1ccccc1` [PCM-0216550], the inhibition at 10 µM is 4.6%.

Regarding `CCOC(=O)N[C@@H]1CC[C@@H]2[C@@H](C1)C[C@H]1C(=O)O[C@H](C)[C@H]1[C@H]2/C=C/c1ccc(-c2cccc(F)c2)cn1` [PCM-0215561], the inhibition at 10 µM worked out at 26.3%.

For `CC(C)[C@H](O)C(=O)N[C@@H](C)C(=O)N[C@@H]1C(=O)N(C)CCc2ccccc21` [PCM-0214637], the inhibition at 10 µM was -3.1%.

With `O=c1ccn([C@@H]2O[C@H](CO)[C@@H](O)[C@@H]2O)c(=O)[nH]1` [PCM-0215072], the inhibition at 10 µM is 5.4%.

For the compound `CCCCc1ccc(O)cc1O` [PCM-0216578], the inhibition at 10 µM is -8.5%.

In the case of `CCN=C1N[C@@H]2[C@@H](O)[C@H](O)[C@@H](CO)O[C@@H]2S1` [PCM-0215232], the inhibition at 10 µM is 3.1%.

Take `O=C(O)C(Cl)Cl` [PCM-0215858]: the inhibition at 10 µM is -8.5%.

Regarding `Cc1cc(C)cc(NC(=O)Cc2ccc(OC(C)(C)C(=O)O)cc2)c1` [PCM-0214786], the inhibition at 10 µM is -2.3%.

In the case of `CC(C)(O)[C@@H]1CC[C@](C)([C@H]2[C@@H](O)C[C@@]3(C)[C@@H]4C[C@H](O[C@@H]5O[C@H](CO)[C@@H](O)[C@H](O)[C@H]5O)[C@H]5C(C)(C)[C@@H](O[C@@H]6OC[C@@H](O)[C@H](O)[C@H]6O)CC[C@@]56C[C@@]46CC[C@]23C)O1` [PCM-0215009], the inhibition at 10 µM is 12.5%.

In the case of `CC[C@H](C)C[C@H](C)CCCCCCCCC(=O)N[C@H]1C[C@@H](O)[C@@H](O)NC(=O)[C@@H]2[C@@H](O)CCN2C(=O)[C@H]([C@H](O)CC(N)=O)NC(=O)[C@H]([C@H](O)[C@@H](O)c2ccc(O)cc2)NC(=O)[C@@H]2C[C@@H](O)CN2C(=O)[C@H]([C@@H](C)O)NC1=O` [PCM-0216459] ({Tetradecanoyl(10R,12S-Me2)}-[Orn(4R-OH,5R-OH)]T[Hyp][hTyr(3S-OH,4S-OH)][Gln(3R-OH)][Pro(3S-OH)]; lactam 1-C), the inhibition at 10 µM is -42.5%.

As for `CC[C@H](C)[C@H](NC(=O)[C@H]([C@@H](C)CC)N(C)C(C)=O)C(=O)N[C@H](C(=O)N[C@@H](CC(C)C)C(=O)[C@@]1(C)CO1)[C@@H](C)O` [PCM-0215680], the inhibition at 10 µM was determined as 23.9%.

`NC(=O)c1nc(F)c[nH]c1=O` [PCM-0215543]: the inhibition at 10 µM is -6.2%.

Take `CCN(CC)C(=O)c1ccc(C2=CC3(CCNCC3)Oc3cccc(O)c32)cc1` [PCM-0094948]: the inhibition at 10 µM was -14%.

For `CNC(=O)c1nn(C)c2c1C(C)(C)Cc1cnc(Nc3ccc(N4CCN(C)CC4)cc3)nc1-2` [PCM-0095492], the inhibition at 10 µM was 44.1%.

In the case of `COc1nc(N)nc2c1ncn2[C@@H]1O[C@H](CO)[C@@H](O)[C@@H]1O` [PCM-0094930], the inhibition at 10 µM was -3.1%.

As for `N#CC[C@H](C1CCCC1)n1cc(-c2ncnc3[nH]ccc23)cn1` [PCM-0095031], the inhibition at 10 µM turned out to be 28.3%.

Take `NC(CO)C(=O)NNCc1ccc(O)c(O)c1O` (stereo not shown) [PCM-0064697]: the inhibition at 10 µM is -14%.

Regarding `COC(=O)Nc1nc2ccc([S+]([O-])c3ccccc3)cc2[nH]1` (stereo not shown) [PCM-0086213], the inhibition at 10 µM was 17.9%.

On to `CCCCCCCCCC(=O)OCC(COC(=O)CCCCCCCCC)OC(=O)CCCCCCCCC` [PCM-0216614], for which the inhibition at 10 µM worked out at 11.6%.

On to `O=CN1CC/C(=C\c2ccc3c(c2)OCO3)C1=O` [PCM-0215470], for which the inhibition at 10 µM is 10.8%.

As to `O=S(=O)(O)NC1CCCCC1` [PCM-0090618], the inhibition at 10 µM is 3.9%.

With `CC(=O)OCC(=O)NCCCOc1cccc(CN2CCCCC2)c1` [PCM-0086003], the inhibition at 10 µM was -3.4%.

In the case of `NC1CCC(N[C@@H]2C[C@H]2c2ccccc2)CC1` (stereo partly shown) [PCM-0215562], the inhibition at 10 µM amounted to 13.1%.

Turning to `CCN(CC)CCNC(=O)c1c(C)[nH]c(/C=C2\C(=O)Nc3ccc(-c4csc(-c5ccccc5)n4)cc32)c1C` [PCM-0215844], the inhibition at 10 µM was 29%.

`C=C1C(=O)O[C@H]2[C@H]1CC/C(C)=C/CC[C@@]1(C)O[C@@H]21` [PCM-0214682]: the inhibition at 10 µM was found to be 18.7%.

Turning to `CC(C)(C)OC(=O)Nc1ccc(-c2cc(C(=O)NCCCCCCC(=O)NO)no2)cc1` [PCM-0215407], the inhibition at 10 µM was found to be 20.1%.

In the case of `Cc1ccc(O)c([C@H](CCN(C(C)C)C(C)C)c2ccccc2)c1` [PCM-0095328], the inhibition at 10 µM worked out at 1.6%.

`O=C(/C=C/c1ccc(O)c2c1[C@H](C(=O)O[C@H](Cc1ccc(O)c(O)c1)C(=O)O)[C@@H](c1ccc(O)c(O)c1)O2)O[C@H](Cc1ccc(O)c(O)c1)C(=O)O` [PCM-0214854]: the inhibition at 10 µM is -34.2%.

Regarding `COC(=O)C1=CO[C@@H](O)[C@@H]2C(CO)=CC[C@H]12` [PCM-0065168], the inhibition at 10 µM is -1.6%.

As to `CNC[C@H](O)c1cccc(O)c1` [PCM-0064848], the inhibition at 10 µM was -20.2%.

As for `COc1ccc(-c2oc3c(CC=C(C)C)c(O[C@@H]4O[C@H](CO)[C@@H](O)[C@H](O)[C@H]4O)cc(O)c3c(=O)c2O[C@@H]2O[C@@H](C)[C@H](O)[C@@H](O)[C@H]2O[C@@H]2OC[C@@H](O)[C@H](O)[C@H]2O)cc1` [PCM-0216511], the inhibition at 10 µM is -8.5%.

As to `NCCCC(O)(P(=O)(O)O)P(=O)(O)O` [PCM-0215186], the inhibition at 10 µM is 0.9%.

Consider `Cn1c([N+](=O)[O-])cnc1COC(N)=O` [PCM-0086329], for which the inhibition at 10 µM was -12.5%.

For `C=CC[N+]1([C@H]2C[C@H]3[C@@H]4CC[C@H]5C[C@H](O)[C@@H](N6CCOCC6)C[C@]5(C)[C@H]4CC[C@]3(C)[C@H]2OC(C)=O)CCCC1` [PCM-0214619], the inhibition at 10 µM was -24.1%.

Consider `CCCCC1=NC2(CCCC2)C(=O)N1Cc1ccc(-c2ccccc2-c2nn[nH]n2)cc1` [PCM-0090383], for which the inhibition at 10 µM was determined as 4.3%.

Take `COc1cccc2c1c(O)c(C(=O)N(C)c1ccc(C(F)(F)F)cc1)c(=O)n2C` [PCM-0215368]: the inhibition at 10 µM was -27.8%.

On to `CCC(CC)(NC(=O)C(C)C)C(=O)N[C@@H](CCCN=C(N)N)C(=O)NC1(C(=O)NC(c2ccc(F)cc2)c2ccc(F)cc2)CCCC1` [PCM-0215267], for which the inhibition at 10 µM is -14.7%.

Turning to `O=C(Nc1ncc([N+](=O)[O-])s1)c1ccccc1O` [PCM-0216250], the inhibition at 10 µM is 7.7%.

On to `C#C[C@]1(OC(C)=O)CC[C@H]2[C@@H]3CCC4=C[C@@H](OC(C)=O)CC[C@@H]4[C@H]3CC[C@@]21C` [PCM-0214663], for which the inhibition at 10 µM is 2.3%.

On to `O=c1c(-c2ccc(O)cc2)coc2cc(O)cc(O)c12` [PCM-0065176], for which the inhibition at 10 µM was determined as 16.6%.

As for `Clc1ccc2c(N3CCN(CCCN4CCN(c5ccnc6cc(Cl)ccc56)CC4)CC3)ccnc2c1` [PCM-0216142], the inhibition at 10 µM was -5.1%.

With `Cc1ccc(NC(=O)c2cccc(C(C)(C)C#N)c2)cc1Nc1ccc2ncn(C)c(=O)c2c1` [PCM-0095483], the inhibition at 10 µM stood at 44.1%.

In the case of `COc1ccc(C(=O)C(=O)c2ccc(OC)cc2)cc1` [PCM-0216078], the inhibition at 10 µM worked out at 24.7%.

Take `CC[C@H](C)n1cc(C)c2c(C(=O)NCc3c(C)cc(C)[nH]c3=O)cc(-c3ccc(N4CCNCC4)nc3)cc21` [PCM-0215444]: the inhibition at 10 µM is -2.6%.

On to `C=C1C[C@@H]2[C@H](CC[C@]3(C)C(=O)CC[C@@H]23)[C@@]2(C)C=CC(=O)C=C12` [PCM-0214605], for which the inhibition at 10 µM is -6.9%.

On to `CCOc1ccc2ccccc2c1C(=O)N[C@@H]1C(=O)N2[C@@H]1SC(C)(C)[C@@H]2C(=O)O` [PCM-0214744], for which the inhibition at 10 µM is -11.7%.

Take `N=C1S/C(=C\c2ccc(-c3ccc4c(c3)C(=O)NC4=O)o2)C(=O)N1c1ccc(Br)cc1` [PCM-0215801]: the inhibition at 10 µM stood at 27%.

Turning to `CO[C@H]1/C=C/O[C@@]2(C)Oc3c(C)c(O)c4c(O)c(cc(O)c4c3C2=O)NC(=O)/C(C)=C\C=C\[C@H](C)[C@H](O)[C@@H](C)[C@@H](O)[C@@H](C)[C@H](OC(C)=O)[C@@H]1C` [PCM-0216568], the inhibition at 10 µM is 22.4%.

On to `CN(C)CC[C@H](CSc1ccccc1)Nc1ccc(S(=O)(=O)NC(=O)c2ccc(N3CCN(Cc4ccccc4-c4ccc(Cl)cc4)CC3)cc2)cc1[N+](=O)[O-]` [PCM-0095734], for which the inhibition at 10 µM is 19.3%.

For the compound `Cc1ccc(C)c(OCCCC(C)(C)C(=O)O)c1` [PCM-0085876], the inhibition at 10 µM was -29.6%.

Take `CC1(C)OC(=O)C=C[C@]2(C)[C@H]3CC[C@@]4(C)[C@H](c5ccoc5)OC(=O)[C@H]5O[C@]54[C@]3(C)C(=O)C[C@@H]12` [PCM-0214973]: the inhibition at 10 µM was 11.7%.

In the case of `CCNc1nc(Nc2cc(F)c(C(=O)N3CCOCC3)cc2OC)ncc1C(F)(F)F` [PCM-0215337], the inhibition at 10 µM was -9%.

As to `O=C(CCCCCCNC(=O)c1cnc(N(c2ccccc2)c2ccccc2)nc1)NO` [PCM-0095595], the inhibition at 10 µM is -18.5%.

For the compound `O=S(=O)(N=Cc1c(O)ccc2ccccc12)c1cccs1` [PCM-0215452], the inhibition at 10 µM is -11.6%.

On to `CC(=O)OCC(=O)[C@@]12OC(C)(C)O[C@@H]1C[C@H]1[C@@H]3C[C@H](F)C4=CC(=O)C=C[C@]4(C)[C@@]3(F)[C@@H](O)C[C@@]12C` [PCM-0214700], for which the inhibition at 10 µM was 19.3%.

Turning to `O=C(NCCCn1ccnc1)c1cc(-c2ccco2)on1` [PCM-0215720], the inhibition at 10 µM was -9.3%.

Consider `O=C1NC(=O)/C(=C/c2ccc3nccc(-c4ccncc4)c3c2)S1` [PCM-0094973], for which the inhibition at 10 µM was 14.5%.

`NCc1ccc(S(N)(=O)=O)cc1` [PCM-0085773]: the inhibition at 10 µM was -28.8%.

Turning to `C=CS(=O)(=O)NC1CCN(C(=O)CNc2cc(I)c(Cl)cc2OC)CC1` [PCM-0215340], the inhibition at 10 µM was found to be 6.2%.

Take `c1ccc(CNc2nc(NCc3ccccc3)c3ccccc3n2)cc1` [PCM-0215216]: the inhibition at 10 µM came out at 10.8%.

For the compound `C=CC(=O)N1CCC(Oc2cc3c(Nc4ccc(Cl)c(Cl)c4F)ncnc3cc2OC)CC1` [PCM-0215416], the inhibition at 10 µM turned out to be 119%.

In the case of `C[C@]12CC[C@@H]3c4ccc(O)cc4CC[C@H]3[C@@H]1CC[C@@H]2O` [PCM-0214649], the inhibition at 10 µM is 4.1%.
